# Columns and labels:
# Format in all cases: cell-based, human
# [1] = system: T/C28a2 chondrocytic cells; assay: DNA microarray analysis of shear-induced mRNA response of chondrocytes; parameters: COX-1 (cyclooxygenase-1) microarray intensity ratio (shear/static): dose or concentration left out as unconfirmed; conditions: 20 dyn/cm2, 48 hr, mean ± SD
# Method: (§1) Cell Culture and Shear Stress Exposure: Human T/C28a2 chondrocytic cells were grown (37° C., 5% CO2) in 1:1 Ham's F-12/DMEM (Biowhittaker) supplemented with 10% FBS. Prior to shear exposure, T/C28a2 cells were incubated for 24 hours in serum-free medium containing 1% Nutridoma-SP (Roche), a low-protein serum replacement that maintains chondrocyte phenotype. Primary HUVECs were cultured as described (Goldring, M. B., 2004). T/C28a2 cells were exposed to shear stress in media containing 1% Nutridoma by use of a parallel-plate flow chamber with a recirculating flow loop (37° C., 5% CO2) (10). HUVECs were treated similarly by circulating media supplemented with 10% FBS.
# Microarray Hybridization and Analysis: Cy-3- and Cy-5-labeled probes were mixed, dried, resuspended in hybridization buffer (50% formamide, 10×SSC, 0.2% SDS, COT-I DNA, Poly(A)-DNA), and denatured. The probes were added to microarray slides printed with a set of 32,448 or 39,936 expressed sequence tags (ESTs), allowed to hybridize at 42° C. overnight, and processed as described (Abulencia, J. P., et al. 2003. Hegde, P. et al. 2000). Expression ratios were derived using TIGR Spotfinder (Abulencia, J. P. et al. 2003, Hegde, P. et al. 2000). Differentially expressed genes were identified by Significance Analysis of Microarrays, and analyzed with the software TMEV (Abulencia, J. P. et al. 2003).
# Quantitative Real-Time PCR (qRT-PCR) was used to verify DNA microarray data. Incorporation of SYBR Green into PCR products was monitored with the 7900HT detection system.
# [2] = system: ARE-driven NQO1 promoter; assay: Promoter activity assay (pNQO1/ARE-luc); conditions: transfected T/C28a2 cells; SFN 1.25 μM or D3T 5 μM, 24 h, static conditions
# Method: Transient Transfection and Plasmid Constructs: T/C28a2 cells were transfected with 10 μg of plasmid and 2 μg of control with Lipofectamine and Plus Reagent (Invitrogen). Cells were allowed to recover for 3 hours, incubated overnight in medium containing 1% Nutridoma, and exposed to the indicated treatments. Efficiency was assessed by flow cytometry with pEGFP-N2 (BD Biosciences). pCMV-mNrf2 and pNQO1/ARE-luc constructs were provided by N. Wakabayashi (Wakabayashi, N. et al. 2004). Igarashi, K., et al. 1994), and pBJ M-pl 10*-myc, pBJ M<<pl 10-UR, and pCG pi 10 wt constructs were provided by A. Kippel (Hu, Q., et al. 1995).
# Promoter Activity Assay: T/C28a2 cells were transfected with 10 μg of pNQO1/ARE-luc and 1 μg each of pEGFP-N2 and pSV40-hRL2 (Promega) to normalize transfection efficiency. Firefly and Renilla luciferase activities were measured using the Dual-Luciferase Report Assay kit (Promega).
# [3] = system: NQO1; assay: NQO1 enzyme activity in shear-activated chondrocytes; conditions: T/C28a2, high shear (20 dyn/cm^2); SFN 1.25 μM, D3T 5 μM, CAY10404 6.75 μM, NS398 30 μM
# Method: as §1
# (§2) Cell Viability, NQO1 activity, Glutathione levels, and Prostaglandin (PG)E2 production: Cell viability was monitored with the MTT assay (Gao, X. et al. 2001). NQO1 activity and total GSH (oxidized and reduced) levels of cell lysates were determined in 96-well microtiter plates. PGE2 levels were determined in media by the Prostaglandin E2 monoclonal EIA kit (Cayman Chemical).
# [4] = system: COX-2; assay: Intracellular COX-2 protein staining, flow cytometry; conditions: D3T 5 μM; 20 dyn/cm^2, 48 hours
# Method: as §1
# (§3) Intracellular Protein Staining and Western Blots: T/C28a2 cells were fixed in 1.0% formaldehyde for 10 min at 37° C., permeabilized in 90% methanol for 20 minutes on ice, and incubated at 25° C. for 10 min in blocking buffer (0.5% BSA). Specimens were then incubated with fluorophore-conjugated monoclonal antibodies specific for COX-I (COX-1/FITC) and COX-2 (COX-2/PE) (Cayman Chemical) or isotype controls (BD Biosciences) for 30 min, washed 2× in blocking buffer, and analyzed by flow cytometry. For Western blots, total cell lysates were subjected to SDS/PAGE, transferred to a membrane, and probed with caspase-9 and β-actin antibodies (Upstate).
# [5] = system: T/C28a2 cells; assay: Shear-induced PGE2 production (EIA of culture media); conditions: D3T 5 μM; fluid shear 48 hours
# Method: as §1, §2
# [6] = system: T/C28a2 cells; assay: Shear-induced apoptosis: DNA fragmentation (TUNEL) and mitochondrial membrane depolarization; conditions: 20 dyn/cm^2, 48 h; D3T 5 μM, CAY10404 6.75 μM, NS398 30 μM
# Method: as §1
# DNA Fragmentation and Mitochondrial Depolarization: For DNA fragmentation, cells were fixed in 4% paraformaldehyde for 1 hour at 25° C., washed 2× in PBS, and permeabilized briefly in 0.1% Triton-X100/0.1% sodium citrate on ice. Subsequently, cells were washed 2× in PBS, labeled using the In Situ Cell Death Kit (Roche), and analyzed by flow cytometry. To quantify Mitochondrial Membrane Potential (MMP), cells were labeled using the MitoProbe JC-I Kit (Molecular Probes).
# [7] = system: caspase-9; assay: Caspase-9 immunoblot analysis; conditions: high shear 20 dyn/cm^2
# Method: as §1, §3
# [8] = system: COX-I; assay: Intracellular COX-1 protein staining, flow cytometry; conditions: D3T 5 μM; static or laminar shear 5 or 20 dyn/cm^2, 48 hours
# Method: as §1, §3
# [9] = 5 μM D3T (shear) vs 0.1% DMSO (static)
smiles,measurement,setting,value
"S=c1ccss1 [D3T, 1,2-dithiole-3-thione]",COX-2 (cyclooxygenase-2) microarray intensity ratio (shear/static),[1]; [9],1.3 ± 0.2
same,Caspase-9 precursor microarray intensity ratio (shear/static),[1]; [9],0.8 ± 0.1
same,GCLR (γ-glutamylcysteine ligase) microarray intensity ratio (shear/static),[1]; [9],1.6 ± 0.1
same,GST μ1 (glutathione S-transferase) microarray intensity ratio (shear/static),[1]; [9],1.6 ± 0.1
same,Glutathione reductase microarray intensity ratio (shear/static),[1]; [9],2.8 ± 0.1
same,HO-1 (Heme Oxygenase-1) microarray intensity ratio (shear/static),[1]; [9],1.2 ± 0.1
same,HO-2 (Heme Oxygenase-2) microarray intensity ratio (shear/static),[1]; [9],0.9 ± 0.1
same,JNK2 (c-jun N-terminal kinase 2) microarray intensity ratio (shear/static),[1]; [9],1.6 ± 0.1
same,NQO1 (NAD(P)H:quinone reductase-1) microarray intensity ratio (shear/static),[1]; [9],1.3 ± 0.1
same,Nrf2 (NF-E2 related factor 2) microarray intensity ratio (shear/static),[1]; [9],1.3 ± 0.1
same,PI3K (phosphoinositol kinase 3) microarray intensity ratio (shear/static),[1]; [9],0.8 ± 0.2
same,Transcription Factor AP-1 (c-jun) microarray intensity ratio (shear/static),[1]; [9],1.4 ± 0.1
same,UDP-glucuronosyltransferase microarray intensity ratio (shear/static),[1]; [9],1.0 ± 0.1
same,COX-1 (cyclooxygenase-1) microarray intensity ratio (shear/static),[1],1.3 ± 0.1
same,ARE-driven NQO1 promoter luciferase activity,[2],increases the luciferase activity
same,shear-induced suppression of NQO1 activity,[3],likewise effective in suppressing the shear-mediated reduction of phase 2 enzyme activity
same,COX-2 protein expression in chondrocytes subjected to high shear,[4],nearly abrogated
same,PGE2 production in chondrocytes subjected to high shear,[5],nearly abrogated
same,"shear-induced apoptosis (DNA fragmentation TUNEL, mitochondrial membrane depolarization MMP)",[6],essentially abrogated
same,expression of proform (46 kDa) and active form (34 kDa) of caspase-9,[7],substantially reduced expression
same,COX-I expression,[8],remains unchanged
